Measurements: patent US11566028B2, “Bicyclic heterocycles as FGFR inhibitors” (Incyte Corporation, priority 2019, dated 2023)
Like-named read-outs stand apart in the source and are kept apart here.

Assays:
Assay type in all cases: biochemical
[1] = target: wild-type un-phosphorylated FGFR3 protein (Homo sapiens (Human), UniProt P22607); assay: FGFR Enzymatic Assay (FRET peptide phosphorylation), FGFR3; conditions: pre-incubated for 4 hours
FGFR1 = FGFR1 (Homo sapiens (Human), UniProt P11362); assay: FGFR Enzymatic Assay (FRET peptide phosphorylation), FGFR1; conditions: pre-incubated for 4 hours
Sequence of FGFR1 (P11362 22-822): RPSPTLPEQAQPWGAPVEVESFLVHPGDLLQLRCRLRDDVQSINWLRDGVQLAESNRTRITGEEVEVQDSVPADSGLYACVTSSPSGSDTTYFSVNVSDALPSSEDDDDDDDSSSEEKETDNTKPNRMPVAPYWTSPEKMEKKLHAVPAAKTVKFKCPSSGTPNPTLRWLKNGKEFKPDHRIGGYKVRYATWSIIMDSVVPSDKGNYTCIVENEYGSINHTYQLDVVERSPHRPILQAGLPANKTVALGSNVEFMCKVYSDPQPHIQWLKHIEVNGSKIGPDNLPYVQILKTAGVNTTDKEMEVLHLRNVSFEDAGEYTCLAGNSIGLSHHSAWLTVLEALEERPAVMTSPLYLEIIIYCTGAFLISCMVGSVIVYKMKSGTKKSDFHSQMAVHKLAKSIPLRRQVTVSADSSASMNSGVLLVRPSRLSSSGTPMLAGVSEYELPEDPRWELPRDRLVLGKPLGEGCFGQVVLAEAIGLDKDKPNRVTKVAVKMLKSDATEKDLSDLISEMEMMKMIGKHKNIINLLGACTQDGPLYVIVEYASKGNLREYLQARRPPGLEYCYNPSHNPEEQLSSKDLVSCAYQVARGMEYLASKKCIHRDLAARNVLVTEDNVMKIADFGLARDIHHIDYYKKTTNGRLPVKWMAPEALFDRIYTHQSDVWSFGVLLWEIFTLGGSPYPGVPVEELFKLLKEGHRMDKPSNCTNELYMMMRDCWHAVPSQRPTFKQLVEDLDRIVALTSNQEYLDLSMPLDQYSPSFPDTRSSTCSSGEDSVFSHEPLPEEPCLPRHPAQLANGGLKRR

FGFR2 = FGFR2 (Homo sapiens (Human), UniProt P21802); assay: FGFR Enzymatic Assay (FRET peptide phosphorylation), FGFR2
Sequence of FGFR2 (P21802 22-821): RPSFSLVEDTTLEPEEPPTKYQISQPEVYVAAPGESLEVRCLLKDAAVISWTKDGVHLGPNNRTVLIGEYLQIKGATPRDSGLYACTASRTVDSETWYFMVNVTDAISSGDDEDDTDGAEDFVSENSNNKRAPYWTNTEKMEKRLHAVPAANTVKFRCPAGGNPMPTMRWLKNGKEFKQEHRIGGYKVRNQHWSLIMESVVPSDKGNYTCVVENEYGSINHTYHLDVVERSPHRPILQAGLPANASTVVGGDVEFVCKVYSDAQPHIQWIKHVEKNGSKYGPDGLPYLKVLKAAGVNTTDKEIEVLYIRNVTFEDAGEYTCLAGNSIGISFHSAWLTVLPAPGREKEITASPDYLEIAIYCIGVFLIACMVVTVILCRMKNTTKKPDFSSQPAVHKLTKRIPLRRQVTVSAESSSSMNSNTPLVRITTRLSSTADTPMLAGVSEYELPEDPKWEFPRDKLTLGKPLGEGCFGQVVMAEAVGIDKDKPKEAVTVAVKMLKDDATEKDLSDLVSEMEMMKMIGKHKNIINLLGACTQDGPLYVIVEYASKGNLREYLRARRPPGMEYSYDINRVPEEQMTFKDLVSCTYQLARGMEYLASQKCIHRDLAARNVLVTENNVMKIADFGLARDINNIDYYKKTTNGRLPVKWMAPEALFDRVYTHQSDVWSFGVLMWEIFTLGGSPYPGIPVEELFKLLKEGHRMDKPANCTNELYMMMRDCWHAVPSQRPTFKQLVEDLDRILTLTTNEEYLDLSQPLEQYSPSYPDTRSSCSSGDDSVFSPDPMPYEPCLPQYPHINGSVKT

Sequence of wild-type un-phosphorylated FGFR3 protein (P22607 23-806): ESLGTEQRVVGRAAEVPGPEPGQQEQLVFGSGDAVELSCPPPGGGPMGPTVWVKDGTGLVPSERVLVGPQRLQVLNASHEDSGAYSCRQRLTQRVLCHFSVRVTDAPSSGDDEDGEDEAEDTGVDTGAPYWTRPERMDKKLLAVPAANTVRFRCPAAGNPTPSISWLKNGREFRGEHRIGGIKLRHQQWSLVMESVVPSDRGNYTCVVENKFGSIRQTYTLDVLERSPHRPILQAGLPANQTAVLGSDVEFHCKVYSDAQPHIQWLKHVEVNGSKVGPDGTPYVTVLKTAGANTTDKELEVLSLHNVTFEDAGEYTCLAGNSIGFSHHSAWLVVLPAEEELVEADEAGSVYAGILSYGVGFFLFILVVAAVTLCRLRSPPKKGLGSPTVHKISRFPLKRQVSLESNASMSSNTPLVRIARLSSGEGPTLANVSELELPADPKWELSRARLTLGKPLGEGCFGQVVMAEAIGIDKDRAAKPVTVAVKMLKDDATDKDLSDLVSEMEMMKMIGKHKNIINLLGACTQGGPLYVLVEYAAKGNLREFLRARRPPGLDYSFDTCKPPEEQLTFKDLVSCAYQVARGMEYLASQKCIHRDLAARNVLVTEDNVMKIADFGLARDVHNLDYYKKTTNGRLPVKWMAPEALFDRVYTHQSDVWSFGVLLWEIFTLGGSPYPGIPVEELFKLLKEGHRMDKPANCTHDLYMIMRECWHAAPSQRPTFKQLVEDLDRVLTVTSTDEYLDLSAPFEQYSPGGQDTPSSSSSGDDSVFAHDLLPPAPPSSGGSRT

SMILES	IC50 [1] [nM]	IC50 (FGFR1) [nM]	IC50 (FGFR2; pre-incubated for 4 hours) [nM]	IC50 (FGFR2) [nM]
CNC(=O)c1cncc(-c2cnn3cc(-c4ccc(N5CCOCC5)nc4)c(O[C@H]4CCOC4)nc23)c1 [Example 20, (S)-N-Methyl-5-(6-(6-morpholinopyridin-3-yl)-5-((tetrahydrofuran-3-yl)oxy)pyrazolo[1,5-a]pyrimidin-3-yl)nicotinamide]	< 10	30 to 200	< 10	
CNC(=O)c1cc(F)c(F)c(-c2cnn3cc(-c4ccc(C)nc4)c(O[C@H]4CCOC4)nc23)c1 [Example 15, (S)-3,4-Difluoro-N-methyl-5-(6-(6-methylpyridin-3-y1)-5-((tetrahydrofuran-3-yl)oxy)pyrazolo[1,5-a]pyrimidin-3-yl)benzamide]	< 10	30 to 200		< 10
CNC(=O)c1cc(F)c(F)c(-c2cnn3cc(-c4cnn(CCN5CCOCC5)c4)c(O[C@H]4CCOC4)nc23)c1 [Example 14, (S)-3,4-Difluoro-N-methy1-5-(6-(1-(2-morpholinoethyl)-1H-pyrazol-4-y1)-5-((tetrahydrofuran-3-yl)oxy)pyrazolo[1,5-a]pyrimidin-3-yl)benzamide]	< 10	< 10		< 10
CNC(=O)c1cc(-c2cnn3cc(-c4cnn(C5CCOC5)c4)c(N[C@H]4CCOC4)nc23)c(F)c(C(F)F)c1 (stereo partly drawn) [Example 49, 3-(Difluoromethyl)-4-fluoro-N-methyl-5-(6-(1-(tetrahydrofuran-3-yl)-1H-pyrazol-4-yl)-5-(((S)-tetrahydrofuran-3-yl)amino)pyrazolo[1,5-a]pyrimidin-3-y1)benzamide]	< 10	10 to 30		< 10
CNC(=O)c1cc(F)c(F)c(-c2cnn3cc(-c4ccc(N5CCN(C)CC5)cc4)c(O[C@H]4CCOC4)nc23)c1 [Example 12, (S)-3,4-Difluoro-N-methy1-5-(6-(4-(4-methylpiperazin-1-yl)pheny1)-5-((tetrahydrofuran-3-yl)oxy)pyrazolo[1,5-a]pyrimidin-3-yl)benzamide]	< 10	< 10		< 10

The next lines start with results.

IC50 [1] [nM]	IC50 (FGFR1) [nM]	IC50 (FGFR2; pre-incubated for 4 hours) [nM]	SMILES	IC50 (FGFR2) [nM]
< 10	< 10	< 10	CNC(=O)c1cc(F)c(F)c(-c2cnn3cc(-c4cnn(Cc5cccnc5)c4)c(N[C@H]4CCOC4)nc23)c1 [Example 52, (S)-3,4-Difluoro-N-methyl-5-(6-(1-(pyridin-3-ylmethyl)-1H-pyrazol-4-yl)-5-((tetrahydrofuran-3-yl)amino)pyrazolo[1,5-a]pyrimidin-3-yl)benzamide]	
< 10	< 10	< 10	CNC(=O)c1cc(-c2cnn3cc(-c4cnn(C5CN(C)C5)c4)c(O[C@H]4CCOC4)nc23)c(F)c(C(F)F)c1 [Example 26, (S)-3-(Difluoromethyl)-4-fluoro-N-methyl-5-(6-(1-(1-methylazetidin-3-yl)-1H-pyrazol-4-yl)-5-((tetrahydrofuran-3-yl)oxy)pyrazolo[1,5-a]pyrimidin-3-yl)benzamide]	
< 10	30 to 200	< 10	CNC(=O)c1cncc(-c2cnn3cc(-c4cnn(C5CC5)c4)c(O[C@H]4CCOC4)nc23)c1 [Example 21, (S)-5-(6-(1-Cyclopropyl-1H-pyrazol-4-yl)-5-((tetrahydrofuran-3-yl)oxy)pyrazolo[1,5-a]pyrimidin-3-yl)-N-methylnicotinamide]	
< 10	30 to 200	10 to 30	CNC(=O)c1cc(C#N)cc(-c2cnn3cc(-c4ccncc4)c(O[C@H]4CCOC4)nc23)c1 [Example 30, (S)-3-Cyano-N-methyl-5-(6-(pyridin-4-yl)-5-((tetrahydrofuran-3-yl)oxy)pyrazolo[1,5-a]pyrimidin-3-yl)benzamide]	
< 10	< 10	< 10	[2H]C([2H])([2H])NC(=O)c1cc(C)c(F)c(-c2cnn3cc(-c4cnn(C5CCN(C(C)C)CC5)n4)c(N[C@H]4CCOC4)nc23)c1 [Example 67, (S)-4-Fluoro-3-(6-(2-(1-isopropylpiperidin-4-yl)-2H-1,2,3-triazol-4-yl)-5-((tetrahydrofuran-3-yl)amino)pyrazolo[1,5-a]pyrimidin-3-yl)-5-methyl-N-(methyl-d3)benzamide]	
